Earlier results in patent publication US10918618B2, “Methods of reducing microbial contamination” (3M INNOVATIVE PROPERTIES COMPANY, priority 2005, dated 2021).

In the case of [H]/N=C(\N/C(=N/[H])NCCCCCCNC(=N)NC(=N)Nc1ccc(Cl)cc1)Nc1ccc(Cl)cc1 [diacetate, chlorhexidine], the solubility limit is listed as 1.9 g/100 mL.

In the case of N=C(NCCCCCCNC(=N)NC(=N)Nc1ccc(Cl)cc1)NC(=N)Nc1ccc(Cl)cc1.O=C(O)[C@H](O)[C@@H](O)[C@H](O)[C@H](O)CO.O=C(O)[C@H](O)[C@@H](O)[C@H](O)[C@H](O)CO [digluconate salt, chlorhexidine digluconate], the solubility limit is listed as 20 g/100 mL.
